Results reported in ChEMBL document CHEMBL1641565, “Discovery and optimisation of a selective non-steroidal glucocorticoid receptor antagonist” (Bioorg Med Chem Lett, 2011).
Values after ≈ are worked out from the molar mass of the structure shown.

How the values were obtained:
[1] = target: T1, Progesterone receptor (Homo sapiens, UniProt P06401); test: Binding affinity to human recombinant PR by competition ligand binding fluorescence polarization assay
T1 sequence (P06401 whole entry): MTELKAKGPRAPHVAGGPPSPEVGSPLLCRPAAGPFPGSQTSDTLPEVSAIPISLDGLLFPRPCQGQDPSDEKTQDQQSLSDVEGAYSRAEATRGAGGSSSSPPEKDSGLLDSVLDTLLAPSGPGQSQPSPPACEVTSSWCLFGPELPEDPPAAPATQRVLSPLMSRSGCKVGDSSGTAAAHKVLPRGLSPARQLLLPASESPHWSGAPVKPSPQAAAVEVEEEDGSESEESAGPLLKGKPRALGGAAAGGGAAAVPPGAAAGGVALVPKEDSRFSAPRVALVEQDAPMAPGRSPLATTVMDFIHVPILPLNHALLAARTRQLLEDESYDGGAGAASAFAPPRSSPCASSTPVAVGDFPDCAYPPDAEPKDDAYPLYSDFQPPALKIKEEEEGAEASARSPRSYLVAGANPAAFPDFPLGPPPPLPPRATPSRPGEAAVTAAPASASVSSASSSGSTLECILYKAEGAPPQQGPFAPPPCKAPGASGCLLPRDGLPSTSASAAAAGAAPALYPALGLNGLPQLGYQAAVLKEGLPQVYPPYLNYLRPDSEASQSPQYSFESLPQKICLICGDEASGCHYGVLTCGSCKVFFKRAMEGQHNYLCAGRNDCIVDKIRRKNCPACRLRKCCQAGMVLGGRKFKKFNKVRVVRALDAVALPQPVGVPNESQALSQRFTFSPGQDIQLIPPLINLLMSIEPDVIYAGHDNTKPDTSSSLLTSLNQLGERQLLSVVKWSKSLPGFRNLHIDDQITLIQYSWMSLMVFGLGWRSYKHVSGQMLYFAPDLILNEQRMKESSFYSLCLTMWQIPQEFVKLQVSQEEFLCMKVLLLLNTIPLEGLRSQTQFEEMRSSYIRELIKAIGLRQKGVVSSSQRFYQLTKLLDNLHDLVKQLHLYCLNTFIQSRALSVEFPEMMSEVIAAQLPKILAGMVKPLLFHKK

[2] = target: T2, Glucocorticoid receptor (Homo sapiens, UniProt P04150); test: Binding affinity to human recombinant GR by competition ligand binding fluorescence polarization assay
T2 sequence (P04150 whole entry): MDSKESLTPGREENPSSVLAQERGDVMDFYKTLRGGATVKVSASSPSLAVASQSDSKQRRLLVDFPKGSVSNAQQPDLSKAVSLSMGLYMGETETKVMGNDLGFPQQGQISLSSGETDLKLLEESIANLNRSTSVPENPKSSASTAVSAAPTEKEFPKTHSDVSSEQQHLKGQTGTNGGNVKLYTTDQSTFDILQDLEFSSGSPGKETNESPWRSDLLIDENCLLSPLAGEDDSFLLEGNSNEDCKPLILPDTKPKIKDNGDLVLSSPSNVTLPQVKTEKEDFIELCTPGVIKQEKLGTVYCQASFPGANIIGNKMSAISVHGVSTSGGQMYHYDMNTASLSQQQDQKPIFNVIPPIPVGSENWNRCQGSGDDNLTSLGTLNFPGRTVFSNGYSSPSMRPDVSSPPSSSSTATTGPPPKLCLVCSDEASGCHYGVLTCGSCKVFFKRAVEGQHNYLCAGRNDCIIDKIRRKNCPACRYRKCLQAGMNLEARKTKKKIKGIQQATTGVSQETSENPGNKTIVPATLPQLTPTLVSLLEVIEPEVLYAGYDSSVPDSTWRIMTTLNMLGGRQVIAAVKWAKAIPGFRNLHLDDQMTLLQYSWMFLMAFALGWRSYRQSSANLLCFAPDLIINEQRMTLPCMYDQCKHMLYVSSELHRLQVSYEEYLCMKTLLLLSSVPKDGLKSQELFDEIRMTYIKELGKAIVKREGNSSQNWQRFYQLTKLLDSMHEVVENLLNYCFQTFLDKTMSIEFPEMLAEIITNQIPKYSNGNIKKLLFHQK

[3] = Intrinsic clearance in human liver microsomes measured per mg of protein; type: ADME, Microsome
[4] = Plasma clearance in Wistar rat at 2 mg/kg, iv; 10 mg/kg, po; type: ADME, organism-based
[5] = target: T2, Glucocorticoid receptor; test: Antagonist activity at human GR […] domain transfected in CHO cells co-transfected with MMTV-luciferase gene assessed as inhibition of cortisol-induced luciferase activity; type: cell-based
[6] = target: T3, Mineralocorticoid receptor (Homo sapiens, UniProt P08235); test: Antagonist activity at human MR ligand binding domain transfected in CHO cells co-transfected with MMTV-luciferase gene assessed as inhibition of cortisol-induced luciferase activity; type: cell-based
T3 sequence (P08235 whole entry): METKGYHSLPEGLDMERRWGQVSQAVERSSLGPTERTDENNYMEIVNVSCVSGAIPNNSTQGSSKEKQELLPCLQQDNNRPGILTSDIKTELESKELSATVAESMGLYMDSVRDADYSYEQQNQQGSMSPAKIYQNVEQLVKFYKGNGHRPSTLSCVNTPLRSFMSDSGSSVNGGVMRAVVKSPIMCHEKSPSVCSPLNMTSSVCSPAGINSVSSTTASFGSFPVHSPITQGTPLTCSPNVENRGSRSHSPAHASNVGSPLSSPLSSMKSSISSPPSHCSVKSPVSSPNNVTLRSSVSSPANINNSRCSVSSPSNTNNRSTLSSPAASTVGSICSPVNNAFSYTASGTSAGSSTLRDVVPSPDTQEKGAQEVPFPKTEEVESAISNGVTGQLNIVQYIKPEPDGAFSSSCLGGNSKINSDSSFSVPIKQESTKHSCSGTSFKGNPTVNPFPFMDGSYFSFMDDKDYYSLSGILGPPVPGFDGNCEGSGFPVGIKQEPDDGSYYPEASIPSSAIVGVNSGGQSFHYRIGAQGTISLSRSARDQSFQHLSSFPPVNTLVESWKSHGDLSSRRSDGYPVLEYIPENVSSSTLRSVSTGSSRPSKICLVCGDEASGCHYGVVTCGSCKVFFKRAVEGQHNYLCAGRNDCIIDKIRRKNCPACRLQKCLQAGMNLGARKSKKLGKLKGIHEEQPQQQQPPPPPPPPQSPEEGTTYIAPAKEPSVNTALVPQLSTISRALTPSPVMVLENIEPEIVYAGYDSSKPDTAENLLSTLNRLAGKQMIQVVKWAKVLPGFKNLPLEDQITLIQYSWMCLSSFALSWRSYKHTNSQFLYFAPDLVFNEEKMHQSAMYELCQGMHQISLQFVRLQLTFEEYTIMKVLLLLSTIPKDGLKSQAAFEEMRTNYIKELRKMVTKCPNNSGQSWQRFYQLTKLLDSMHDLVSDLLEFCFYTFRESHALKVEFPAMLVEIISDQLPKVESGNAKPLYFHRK

[7] = Oral bioavailability in Wistar rat at 10 mg/kg; type: ADME, organism-based; conditions: in vivo
[8] = Solubility of the compound in PBS at pH 7.4; type: physicochemical
[9] = Volume of distribution at steady state in Wistar rat at 2 mg/kg, iv; 10 mg/kg, po; type: ADME, organism-based; conditions: in vivo, read-out: Vdss
[10] = Intrinsic clearance in rat liver microsomes measured per mg of protein; type: ADME, Microsome

EC50 [1] [nM]	EC50 [2] [nM]	Structure (SMILES)	also measured
200	5.01	COc1ccc(F)cc1-c1ccc([C@@H](C)NS(=O)(=O)c2c(C)noc2C)cc1	–
7.94	3.98	Cc1noc(C)c1-c1ccc(CNS(=O)(=O)c2c(C)noc2C)cc1	–
> 10000	1000	Cc1noc(C)c1S(=O)(=O)NCc1ccc(-c2ccccc2)cc1	–
200	31.6	COc1ccccc1-c1ccc(CNS(=O)(=O)c2c(C)noc2C)cc1	–
126	12.6	COc1ccc(F)cc1-c1ccc(CNS(=O)(=O)c2c(C)noc2C)cc1	–
50.1	2	COc1ccc(F)cc1-c1ccc(CNS(=O)(=O)c2cc(Cl)ccc2Cl)cc1	–
251	25.1	COc1ccc(F)cc1-c1ccc([C@H](C)NS(=O)(=O)c2c(C)noc2C)cc1	–
794	25.1	COc1ncccc1-c1ccc([C@@H](C)NS(=O)(=O)c2c(C)noc2C)cc1	–
631	10	Cc1noc(C)c1S(=O)(=O)N[C@H](C)c1ccc(-c2cccnc2OC(F)F)cc1	microsomal CLint [3]: > 270 µL/min/mg
79.4	6.31	COc1ncc(C#N)cc1-c1ccc([C@@H](C)NS(=O)(=O)c2c(C)noc2C)cc1	–
794	3.98	COc1ccc(F)cc1-c1ccc([C@@H](C)NS(=O)(=O)c2cn(C)nc2C(F)(F)F)cc1	–
> 10000	12.6	COc1ncccc1-c1ccc([C@@H](C)NS(=O)(=O)c2cn(C)nc2C(F)(F)F)cc1	–
> 10000	12.6	COc1ncc(C#N)cc1-c1ccc([C@@H](C)NS(=O)(=O)c2cn(C)nc2C(F)(F)F)cc1	clearance [4]: 9.8 mL/min/kg; EC50 [5]: 100 nM; EC50 [6]: > 10000 nM; bioavailability [7]: 42%; solubility [8]: 28.9 µg/mL (≈ 62.1 µM); microsomal CLint [3]: < 12 µL/min/mg; Vd [9]: 0.7 L/kg; microsomal CLint [10]: < 12 µL/min/mg
